Assay results as given in publication PMC10428205, “Cytotoxicity of Ruthenium(II) Arene Complexes Containing Functionalized Ferrocenyl β-Diketonate Ligands” (Organometallics, 2023).
Like-named read-outs stand apart in the source and are kept apart here.

Assays:
[1] = test system: MIA PaCa-2; format: cell-based
Protocol: (§1) LogP = Log ( [C]final ) Eqn1
(§2) 96 h Chemosensitivity Studies
(§3) In vitro chemosensitivity tests were performed at both the University of Huddersfield and the Institute of Cancer Therapeutics, Bradford, in a sterile Class II Biological Safety Cabinet fitted with a HEPA filtered laminar airflow.
Cellular assays were conducted against human pancreatic carcinoma (MIA PaCa-2), human colorectal carcinoma p53-wildtype (HCT116 p53+/+), and human non-cancerous epithelial retinal cells (ARPE-19). […]
were obtained from the American Type Culture Collection and provided by the University of Huddersfield. All cell lines were routinely maintained as monolayer cultures in appropriate complete medium and maintained in either […]
T-25 or T-75 flasks at 37 °C and 5% CO2.
10% foetal calf serum. All medium was supplemented with sodium pyruvate (1 mM) and L-glutamine (2 mM), and prior to chemosensitivity studies, cell monolayers were passaged using Trypsin-EDTA and diluted to a […]
cells/mL cell suspension was added to each well and incubated for 24 h at 37 °C and 5% CO2. After 24 h, 100 mL of drug dilutions (fresh 100 mM stock solutions in DMSO) in media were added to the plates and then incubated for a further 96 h at 37°C and 5% CO2 (48 h + 48 h recovery period were used for the shorter exposures with MIA PaCa-2 cells only). After 96 h, 20 mL MTT (3-(4,5-dimethylthiazol-2-yl)-2,5-diphenyltetrazolium bromide, 5 mg/mL) was added to each well and incubated for 3 h at 37 °C and 5% CO2. All solutions were then removed from the 96-well plates via pipette and […] of DMSO added to each well to dissolve the purple formazan […]
FC spectrophotometer microplate reader. Using the blank and 100% cell controls, the % cell viability was determined [(abs. of compound containing wells – abs. media wells)/(abs. 100% cell suspension well control)] and from this the % cell death (100%- % cell viability) was calculated. On a logarithmic scale, the percentage cell death was plotted against the concentration of compound, and from this the half maximal inhibitory concentration (IC50) value was determined. Each of the experiments were performed in triplicate with mean values being stated as the IC50 ± Standard Deviation (SD). […]

[2] = test system: MIA PaCa-2; test: 24 and 48 h chemosensitivity (MTT, with recovery period); format: cell-based, human
Protocol: as §1, §2, §3
Cellular assays were conducted against human pancreatic carcinoma (MIA PaCa-2), human colorectal carcinoma p53-wildtype (HCT116 p53+/+), and human non-cancerous epithelial retinal cells (ARPE-19). The ARPE-19 cells were obtained from the American Type Culture Collection and provided by the University of Huddersfield. All cell lines were routinely maintained as monolayer cultures in appropriate complete medium and maintained in either T-25 or T-75 flasks at 37 °C and 5% CO2. MIA PaCa-2 and ARPE-19 cells were cultured in high glucose DMEM-F12 medium containing 10% foetal calf serum, and HCT116 p53+/+ was cultured in RPMI 1640 supplemented with 10% foetal calf serum. All medium was supplemented with sodium pyruvate (1 mM) and L-glutamine (2 mM), and prior to chemosensitivity studies, cell monolayers were passaged using Trypsin-EDTA and diluted to a concentration of 1 x 10^4 cells/mL. All assays were conducted using 96-well plates, in which […] of the 1 x 10^4 cells/mL cell suspension was added to each well and incubated for 24 h at 37 °C and 5% CO2. After 24 h, 100 mL of drug dilutions (fresh 100 mM stock solutions in DMSO) in media were added to the plates and then incubated for a further 96 h at 37°C and 5% CO2 (48 h + 48 h recovery period were used for the shorter exposures with MIA PaCa-2 cells only). After 96 h, 20 mL MTT (3-(4,5-dimethylthiazol-2-yl)-2,5-diphenyltetrazolium bromide, 5 mg/mL) was added to each well and incubated for 3 h at 37 °C and 5% CO2. All solutions were then removed from the 96-well plates via pipette and […] of DMSO added to each well to dissolve the purple formazan crystals. After mixing well, the absorbance of each well was measured at 540 nm using a ThermoFisher Multiskan FC spectrophotometer microplate reader. Using the blank and 100% cell controls, the % cell viability was determined [(abs. of compound containing wells – abs. media wells)/(abs. 100% cell suspension well control)] and from this the % cell death (100%- % cell viability) was calculated. On a logarithmic scale, the percentage cell death was plotted against the concentration of compound, and from this the half maximal inhibitory concentration (IC50) value was determined. Each of the experiments were performed in triplicate with mean values being stated as the IC50 ± Standard Deviation (SD).
24 and 48 h Chemosensitivity Studies
The same experimental protocol described for the 96 h MTT assay was used, and the MIA PaCa-2 cells were incubated for either 24 or 48 h, with a 72 or 48 h recovery period respectively. […]
All assays were conducted in triplicate.

[3] = Cyclic voltammetry; conditions: for E0′ (Fc*/Fc*+): 0.1 M TBAPF6 in acetonitrile, Fc/Fc+ = 0.40 V internal standard; for E0′ (Fc*/Fc*+) / EP Red: vs SCE; for EP Red: irreversible reduction; for E0’ (Fc*/Fc*+) at 0.05 V/s: scan speed 0.05 V/s; for E0’ (Fc*/Fc*+) at 0.10 V/s: scan speed 0.10 V/s; for E0’ (Fc*/Fc*+) at 0.25 V/s: scan speed 0.25 V/s
[4] = 96 h MTT, normoxic, ± SD, read-out: IC50 against MIA PaCa-2
[5] = MIA PaCa-2, 24 h exposure + 72 h recovery, read-out: IC50 values ± SD, 24 h
[6] = MIA PaCa-2, 48 h exposure + 48 h recovery, read-out: IC50 values ± SD, 48 h

Row | SMILES | Selectivity index (SI), IC50 ARPE-19 / IC50 MIA PaCa-2 ([1]; 96 h, * = minimum value as at least one IC50 > 100) | IC50 [1, 4] [µM] | IC50 ([1]; MIA PaCa-2, 96 h, read-out: IC50 values ± SD (Table S14)) [µM] | IC50 [2, 5] [µM] | IC50 [2, 6] [µM] | E0′ (Fc*/Fc*+) [3] [V] | EP Red [3] | E0’ (Fc*/Fc*+) at 0.05 V/s [3] [V] | E0’ (Fc*/Fc*+) at 0.10 V/s [3] [V] | E0’ (Fc*/Fc*+) at 0.25 V/s [3] [V]
1 | [NH2][Pt]([NH2])([Cl])[Cl] [CDDP, cisplatin, reference compound] | 1.7 | 3.6 ± 0.7 | 3.6 ± 0.7 | > 100 | 76 ± 3 |  |  |  |  | 
2 | CC(O)=CC(=O)[c-]1cccc1.[Fe+2].c1cc[cH-]c1 [Complex L1] |  | 59 ± 2 |  | 76 ± 3 | 61 ± 1 | 0.63 | –1.98 V | 0.63 | 0.62 | 0.63
3 | O=C(C=C(O)c1ccccc1)[c-]1cccc1.[Fe+2].c1cc[cH-]c1 [Complex L2] |  | 38.7 ± 0.8 |  | > 100 | 68 ± 3 | 0.63 | –1.73 V | 0.63 | 0.63 | 0.63
4 | O=C(C=C(O)C(F)(F)F)[c-]1cccc1.[Fe+2].c1cc[cH-]c1 [Complex L7] |  | 17 ± 1 |  | > 100 | 20 ± 1 | 0.71 | –1.42 V | 0.71 | 0.71 | 0.71
